One experiment has as its target T1, NaV1.3 (Homo sapiens, UniProt Q9NY46).
T1 construct: expressed in transfected cells; host or cells: HEK293
The experiment in a line: VIPR optical membrane potential assay with electrical stimulation, NaV1.3. Format: cell-based. The settings on record: Table 9, NaV 1.3 receptors. On the procedure: Antagonist properties of test compounds were assessed as follows. Cells expressing the NaV of interest were placed into microtiter plates. After an incubation period, the cells were stained with fluorescent dyes sensitive to the transmembrane potential. The test compounds were added to the microtiter plate. The cells were stimulated with either chemical or electrical means to evoke a NaV dependent membrane potential change from unblocked channels, which was detected and measured with trans-membrane potential-sensitive dyes. Antagonists were detected as a decreased membrane potential response to the stimulus.
(§1) VIPR® Optical Membrane Potential Assay Method with Electrical Stimulation
The following is an example of how NaV1.3 inhibition activity is measured using the optical membrane potential method#2. Other subtypes are performed in an analogous mode in a cell line expressing the NaV of interest.
HEK293 cells stably expressing NaV1.3 are plated into 96-well microtiter plates. After an appropriate incubation period, the cells are stained with the voltage sensitive dyes CC2-DMPE/DiSBAC2(3) as follows.
2X CC2-DMPE=20 μM CC2-DMPE: 10 mM CC2-DMPE is vortexed with an equivalent volume of 10% pluronic, followed by vortexing in required amount of HBSS containing 10 mM HEPES. Each cell plate will require 5 mL of 2×CC2-DMPE. 50 μL of 2×CC2-DMPE is added to wells containing washed cells, resulting in a 10 μM final staining concentration. The cells are stained for 30 minutes in the dark at RT.
2X DISBAC2(3) with ABSC1=6 μM DISBAC2(3) and 1 mM ABSC1: The required amount of 10 mM DISBAC2(3) is added to a 50 ml conical tube and mixed with 1 μL 10% pluronic for each mL of solution to be made and vortexed together. Then HBSS/HEPES is added to make up 2× solution. Finally, the ABSC1 is added.
The 2X DiSBAC2(3) solution can be used to solvate compound plates. Note that compound plates are made at 2× drug concentration. Wash stained plate again, leaving residual volume of 50 Add 50 μL/well of the 2X DiSBAC2(3) w/ABSC1. Stain for 30 minutes in the dark at RT.
(§2) The instrument comprises a microtiter plate handler, an optical system for exciting the coumarin dye while simultaneously recording the coumarin and oxonol emissions, a waveform generator, a current- or voltage-controlled amplifier, and a device for inserting electrodes in well. Under integrated computer control, this instrument passes user-programmed electrical stimulus protocols to cells within the wells of the microtiter plate.
• 1. Insert or use electrodes into each well to be assayed. • 2. Use the current-controlled amplifier to deliver stimulation wave pulses for 3 s. Two seconds of pre-stimulus recording are performed to obtain the un-stimulated intensities. Five seconds of post-stimulation recording are performed to examine the relaxation to the resting state. Data Analysis
(§3) Data are analyzed and reported as normalized ratios of background-subtracted emission intensities measured in the 460 nm and 580 nm channels. Background intensities are then subtracted from each assay channel. Background intensities are obtained by measuring the emission intensities during the same time periods from identically treated assay wells in which there are no cells. The response as a function of time is then reported as the ratios obtained using the following formula: […]
(§4) The data is further reduced by calculating the initial (Ri) and final (Rf) ratios. These are the average ratio values during part or all of the pre-stimulation period, and during sample points during the stimulation period. The response to the stimulus R=Rf/Ri is then calculated.
Control responses are obtained by performing assays in the presence of a compound with the desired properties (positive control), such as tetracaine, and in the absence of pharmacological agents (negative control). Responses to the negative (N) and positive (P) controls are calculated as above. The compound antagonist activity A is defined as: […]

The target in a further experiment is T2, CaV2.2 (Homo sapiens, UniProt Q00975).
T2 construct: expressed in transfected cells; host or cells: HEK293
The experiment in a line: VIPR optical membrane potential assay with electrical stimulation, CaV2.2. Format: cell-based. To be noted: Table 9, CaV 2.2 receptors. On the procedure:
A. Optical Methods for Assaying CaV Inhibition Properties of Compounds:
Antagonist properties of test compounds were assessed as follows. Cells expressing the CaV of interest were placed into microtiter plates. After an incubation period, the cells were stained with fluorescent dyes sensitive to the transmembrane potential. The test compounds were added to the microtiter plate. The cells were stimulated with electrical means to evoke a CaV dependent membrane potential change from unblocked channels, which was detected and measured with trans-membrane potential-sensitive dyes. Antagonists were detected as a decreased membrane potential response to the stimulus.
as §1
The following is an example of how CaV2.2 inhibition activity is measured using the optical membrane potential method. Other subtypes are performed in an analogous mode in a cell line expressing the CaV of interest.
HEK293 cells stably expressing CaV2.2 are plated into 96-well microtiter plates. After an appropriate incubation period, the cells are stained with the voltage sensitive dyes CC2-DMPE/DiSBAC2(3) as follows.
2X CC2-DMPE=20 μM CC2-DMPE: 10 mM CC2-DMPE is vortexed with an equivalent volume of 10% Pluronic, followed by vortexing in required amount of HBSS containing 10 mM HEPES. Each cell plate will require 5 mL of 2×CC2-DMPE. 50 μL of 2×CC2-DMPE is added to wells containing washed cells, resulting in a 10 μM final staining concentration. The cells are stained for 30 minutes in the dark at RT.
Vortex in required amount of Bath X with beta-cyclodextrin. Each 96 well cell plate will require 5 ml of 2XCC2DMPE. Wash plate with ELx405 with Bath X, leaving a residual volume of 50 μL/well. Add 50 μL of 2XCC2DMPE & […] to each well. Stain for 30 minutes in the dark at RT.
Allow solution to sit for 10 minutes. Slowly mix in 370 mM BaCl2. This solution can be used to solvate compound plates. Note that compound plates are made at 1.5× drug concentration and not the usual 2X. Wash CC2 stained plate, again, leaving residual volume of 50 μL. Add 100 uL/well of the AY17 solution. Stain for 15 minutes in the dark at RT. Run plate on the optical reader.
as §2
Insert or use electrodes into each well to be assayed.
Use the current-controlled amplifier to deliver stimulation wave pulses for 3-5 s. Two seconds of pre-stimulus recording are performed to obtain the un-stimulated intensities. Five seconds of post-stimulation recording are performed to examine the relaxation to the resting state.
as §3, §4
Control responses are obtained by performing assays in the presence of a compound with the desired properties (positive control), such as mibefradil, and in the absence of pharmacological agents (negative control).

Our source for the IC50 values is patent publication US8546414B2, “Ion channel modulators and methods of use” (Vertex Pharmaceuticals Incorporated, priority 2004, dated 2013).

T1 sequence (Q9NY46 whole entry): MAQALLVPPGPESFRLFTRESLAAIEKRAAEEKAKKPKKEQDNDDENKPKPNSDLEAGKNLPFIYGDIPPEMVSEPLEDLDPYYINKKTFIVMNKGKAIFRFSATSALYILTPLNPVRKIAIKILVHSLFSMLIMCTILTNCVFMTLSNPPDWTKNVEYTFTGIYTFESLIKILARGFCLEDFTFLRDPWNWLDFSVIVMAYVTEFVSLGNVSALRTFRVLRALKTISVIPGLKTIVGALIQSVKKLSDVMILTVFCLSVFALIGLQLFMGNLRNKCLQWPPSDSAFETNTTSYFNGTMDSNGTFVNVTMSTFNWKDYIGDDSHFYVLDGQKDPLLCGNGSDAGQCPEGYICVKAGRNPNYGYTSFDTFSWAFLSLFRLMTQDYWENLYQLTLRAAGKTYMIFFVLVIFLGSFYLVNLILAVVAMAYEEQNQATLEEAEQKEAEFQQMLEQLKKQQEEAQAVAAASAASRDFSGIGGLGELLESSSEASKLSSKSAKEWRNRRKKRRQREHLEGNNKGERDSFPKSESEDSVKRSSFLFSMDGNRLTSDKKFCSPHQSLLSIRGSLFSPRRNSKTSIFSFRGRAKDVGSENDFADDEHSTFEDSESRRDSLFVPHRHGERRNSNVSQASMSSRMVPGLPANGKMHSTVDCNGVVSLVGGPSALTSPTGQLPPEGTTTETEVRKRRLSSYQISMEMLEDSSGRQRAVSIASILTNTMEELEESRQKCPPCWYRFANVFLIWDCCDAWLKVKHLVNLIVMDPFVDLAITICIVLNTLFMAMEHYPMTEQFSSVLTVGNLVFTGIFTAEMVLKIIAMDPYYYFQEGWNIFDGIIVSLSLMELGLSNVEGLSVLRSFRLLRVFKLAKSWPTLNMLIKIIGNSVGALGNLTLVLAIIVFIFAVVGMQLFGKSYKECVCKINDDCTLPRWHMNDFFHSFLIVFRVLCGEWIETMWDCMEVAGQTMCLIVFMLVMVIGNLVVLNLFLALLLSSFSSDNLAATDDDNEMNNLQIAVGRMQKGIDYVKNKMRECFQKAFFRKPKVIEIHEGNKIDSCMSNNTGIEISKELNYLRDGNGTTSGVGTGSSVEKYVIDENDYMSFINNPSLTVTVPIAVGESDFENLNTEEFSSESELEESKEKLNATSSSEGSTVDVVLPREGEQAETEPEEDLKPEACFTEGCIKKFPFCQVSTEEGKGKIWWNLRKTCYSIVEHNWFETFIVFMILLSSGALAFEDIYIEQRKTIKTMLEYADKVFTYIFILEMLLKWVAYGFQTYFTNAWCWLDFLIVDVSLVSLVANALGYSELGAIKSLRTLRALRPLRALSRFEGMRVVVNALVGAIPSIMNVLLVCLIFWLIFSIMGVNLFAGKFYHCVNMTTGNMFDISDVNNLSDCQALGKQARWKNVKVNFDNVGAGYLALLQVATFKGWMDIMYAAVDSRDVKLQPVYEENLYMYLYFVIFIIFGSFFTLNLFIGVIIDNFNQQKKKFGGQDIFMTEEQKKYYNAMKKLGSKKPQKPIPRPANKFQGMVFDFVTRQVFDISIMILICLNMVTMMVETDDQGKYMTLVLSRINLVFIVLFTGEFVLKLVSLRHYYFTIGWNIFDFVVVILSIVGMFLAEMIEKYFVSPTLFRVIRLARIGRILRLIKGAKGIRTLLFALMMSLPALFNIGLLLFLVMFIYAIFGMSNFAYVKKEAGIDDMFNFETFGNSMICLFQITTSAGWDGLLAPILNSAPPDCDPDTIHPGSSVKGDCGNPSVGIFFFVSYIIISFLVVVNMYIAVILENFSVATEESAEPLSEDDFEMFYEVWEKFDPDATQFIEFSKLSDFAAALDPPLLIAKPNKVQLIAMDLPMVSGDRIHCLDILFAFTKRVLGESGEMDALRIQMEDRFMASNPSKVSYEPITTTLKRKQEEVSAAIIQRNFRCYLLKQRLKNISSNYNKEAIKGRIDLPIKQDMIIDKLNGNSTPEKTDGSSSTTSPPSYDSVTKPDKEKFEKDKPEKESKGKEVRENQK

With `CCN(Cc1ccccc1)C(=O)c1cnc(NCc2ccc3c(c2)OCO3)nc1-c1ccc(C#N)cc1` [compound 269], the IC50 on NaV1.3 and against CaV2.2 was greater than 10 µM throughout.

As for `CC(C)CN(C)C(=O)c1cnc(N2CCCC2)nc1-c1ccccc1F` [compound 270], the IC50 against NaV1.3 and at CaV2.2 was greater than 10 µM each time.

Take `COc1ccc(CCN(C)c2ncc(C(=O)N(C)CC(C)C)c(-c3ccc(C#N)cc3)n2)cc1OC` [compound 271]: the 50% inhibitory concentration (IC50) against NaV1.3 and at CaV2.2 was greater than 10 µM each time.

With `COc1ccccc1CCNC(=O)c1cnc(N2CCCC2)nc1-c1cccc(C)c1` [compound 272], the IC50 against NaV1.3 and against CaV2.2 was greater than 10 µM each time.

In the case of `CCC(C)Nc1ncc(C(=O)N(C)CC)c(-c2cccc(C)c2)n1` (centres unmarked) [compound 273], the IC50 against NaV1.3 and at CaV2.2 was greater than 10 µM throughout.

On to `COCCCNc1ncc(C(=O)N2CCCCC2)c(-c2cccc(C)c2)n1` [compound 274], for which the IC50 against NaV1.3 and against CaV2.2 was greater than 10 µM each time.

`COCCNc1ncc(C(=O)N(C)C2CCCCC2)c(-c2ccccc2F)n1` [compound 276]: the IC50 on NaV1.3 and on CaV2.2 was greater than 10 µM in each case.

For `CC(C)N(Cc1ccccc1)C(=O)c1cnc(NCC2CC2)nc1-c1ccccc1F` [compound 277], the concentration for half-maximal inhibition (IC50) at NaV1.3 was greater than 10 µM; on CaV2.2, 2 to 10 µM.

For `CC1CC(C)CN(C(=O)c2cnc(N3CCOCC3)nc2-c2ccccc2F)C1` (centres unmarked) [compound 279], the IC50 on NaV1.3 and on CaV2.2 was greater than 10 µM each time.

For `COc1cccc(OC)c1CNc1ncc(C(=O)N(C)C2CCCCC2)c(-c2ccc(C#N)cc2)n1` [compound 280], the IC50 against NaV1.3 and on CaV2.2 was greater than 10 µM each time.

`CC(=O)NCCNC(=O)c1cnc(N2CCCC2)nc1-c1ccc(-c2ccccc2)cc1` [compound 281]: the IC50 on NaV1.3 and against CaV2.2 was greater than 10 µM in each case.

As to `CCC1CCC(C)N(C(=O)c2cnc(N(C)CC)nc2-c2ccccc2F)C1` (centres unmarked) [compound 282], the figures for the IC50 on NaV1.3 and against CaV2.2 were greater than 10 µM and 2 to 10 µM, respectively.

As to `CCN(C)C(=O)c1cnc(N2CCCC(C(N)=O)C2)nc1-c1ccc(C#N)cc1` (centres unmarked) [compound 284], the IC50 at NaV1.3 and against CaV2.2 was greater than 10 µM each time.

Take `COc1ccc(CCN(C)c2ncc(C(=O)N3CC(C)CC(C)C3)c(-c3ccc(C#N)cc3)n2)cc1OC` (centres unmarked) [compound 285]: the IC50 at NaV1.3 and on CaV2.2 was greater than 10 µM each time.

Turning to `CC1CCCCC1NC(=O)c1cnc(N2CCCC(C(N)=O)C2)nc1-c1ccc(C#N)cc1` (centres unmarked) [compound 286], the IC50 on NaV1.3 and at CaV2.2 was greater than 10 µM throughout.

As for `Cc1cccc(-c2nc(NC3CC4CC(C3C)C4(C)C)ncc2C(=O)N2CCOCC2)c1` (centres unmarked) [compound 288], the IC50 on NaV1.3 and on CaV2.2 was greater than 10 µM in each case.

Consider `CCN(Cc1ccccc1)C(=O)c1cnc(N2CCCC(C(N)=O)C2)nc1-c1ccccc1F` (centres unmarked) [compound 289], for which the IC50 on NaV1.3 and on CaV2.2 was greater than 10 µM in each case.

With `CCN(Cc1ccccc1)C(=O)c1cnc(N2CCN(C(C)=O)CC2)nc1-c1ccccc1F` [compound 290], the IC50 against NaV1.3 and on CaV2.2 was greater than 10 µM in each case.

For the compound `CC(=O)NCCNc1ncc(C(=O)N(Cc2ccccc2)C(C)C)c(-c2ccccc2F)n1` [compound 291], the IC50 against NaV1.3 and at CaV2.2 was greater than 10 µM in each case.

Take `COc1ccc(CCN(C)c2ncc(C(=O)N3CCCC3)c(-c3ccc(C#N)cc3)n2)cc1OC` [compound 292]: the concentration for half-maximal inhibition (IC50) at NaV1.3 and against CaV2.2 was greater than 10 µM in each case.

Regarding `Cc1cccc(-c2nc(N3CCOCC3)ncc2C(=O)NCc2cccc(C(F)(F)F)c2)c1` [compound 293], the IC50 against NaV1.3 and at CaV2.2 was greater than 10 µM in each case.

As to `CCC1CCC(C)N(C(=O)c2cnc(NCCCOC)nc2-c2ccc(C#N)cc2)C1` (centres unmarked) [compound 294], the IC50 against NaV1.3 and against CaV2.2 was greater than 10 µM in each case.

Consider `CC(C)CN(C)C(=O)c1cnc(NCCc2cccc(F)c2)nc1-c1ccc(C#N)cc1` [compound 295], for which the values for the IC50 against NaV1.3 and against CaV2.2 were greater than 10 µM and 2 to 10 µM, respectively.

Turning to `COCCCNc1ncc(C(=O)N(Cc2ccccc2)C(C)C)c(-c2ccccc2F)n1` [compound 296], the IC50 against NaV1.3 and on CaV2.2 was greater than 10 µM throughout.

On to `COCCNc1ncc(C(=O)NCC2CCCCC2)c(-c2ccc(-c3ccccc3)cc2)n1` [compound 297], for which the IC50 against NaV1.3 and at CaV2.2 was greater than 10 µM throughout.

For `CN(C(=O)c1cnc(NCC2CC2)nc1-c1ccc(C#N)cc1)C1CCCCC1` [compound 298], the IC50 against NaV1.3 and at CaV2.2 was greater than 10 µM in each case.

`CCCCNC(=O)c1cnc(N(C)CCc2ccc(OC)c(OC)c2)nc1-c1ccc(C#N)cc1` [compound 299]: the IC50 on NaV1.3 and at CaV2.2 was greater than 10 µM in each case.

As for `COCCNc1ncc(C(=O)N(Cc2ccccc2)C(C)C)c(-c2ccccc2F)n1` [compound 300], the IC50 at NaV1.3 and on CaV2.2 was greater than 10 µM each time.

As for `CC(C)N(Cc1ccccc1)C(=O)c1cnc(NCc2ccc3c(c2)OCO3)nc1-c1ccccc1F` [compound 301], the IC50 on NaV1.3 and against CaV2.2 was greater than 10 µM throughout.

As to `COc1ccccc1CCNC(=O)c1cnc(N2CCOCC2)nc1-c1ccccc1F` [compound 302], the IC50 against NaV1.3 and against CaV2.2 was greater than 10 µM each time.

In the case of `COCCCNc1ncc(C(=O)N(C)C2CCCCC2)c(-c2ccc(C#N)cc2)n1` [compound 303], the IC50 against NaV1.3 and against CaV2.2 was greater than 10 µM in each case.

On to `Cc1cccc(-c2nc(NCc3ccccc3)ncc2C(=O)N2CCOCC2)c1` [compound 304], for which the IC50 at NaV1.3 and against CaV2.2 was greater than 10 µM in each case.

For the compound `CCC(C)NC(=O)c1cnc(NCCc2ccc(Cl)cc2)nc1-c1ccccc1F` (centres unmarked) [compound 305], the IC50 against NaV1.3 and at CaV2.2 was greater than 10 µM in each case.

Turning to `Cc1cccc(-c2nc(NCC3CCCCC3)ncc2C(=O)N2CCOCC2)c1` [compound 306], the IC50 against NaV1.3 and at CaV2.2 was greater than 10 µM throughout.
